Patent US6525098B1, “6-methoxy-2-naphthylacetic acid prodrugs” (Nobex Corporation, priority 1999, dated 2003)

Experiments:
[1] = test system: rat paw edema; assay: rat paw edema; format: in vivo
[2] = analysis of blood samples / plasma levels in rats after oral delivery; format: in vivo
Description: FIG. 1 is a graph of in plasma levels of Example 1 compared to Nabumetone.

[3] = oral administration; cited from earlier work

melting point [°C]	Compound	rat paw edema, % inhibition [1] [%]	plasma levels and onset compared to Nabumetone (FIG. 1) [2]	fraction of orally administered nabumetone transferred in vivo into 6MNA [3]
110 to 113	COc1ccc2cc(CCO)ccc2c1 [Example 1, 2-(6-Methoxy-naphthalen-2-yl)-ethanol]	67.5	higher plasma levels, with more rapid onset	–
–	COc1ccc2cc(CCC(C)=O)ccc2c1 [Nabumetone, nabumetone, reference compound]	60.0	–	about 35%
